Experiments:
[1] = test system: restrained mice; test: Open field test after chronic restraint stress (Example 2); assay type: in vivo, C57BL/6 male mice; conditions: IN cotinine 24 μl of 10 mg/ml daily, RS+PBS 61±19 m
Experimental: Mice between 2-3 months of age after one week of acclimatization were randomly divided into two groups. Stressed mice were subjected to restraint stress. Control (non-restrained) mice were allowed to move freely during this period. After the stress exposure period, mice were divided into three experimental groups: 1) Non-restrained mice treated with vehicle (PBS, pH 7.4) serving as unstressed controls (n=8); 2) Restrained mice (RS) treated with vehicle (n=8); 3), RS mice treated with 24 μl of a cotinine solution (10 mg/ml in PBS, pH 7.4) via intranasal route of administration (n=6). Treatments were administered daily until euthanasia. After two weeks of treatments mice were behaviorally tested and euthanized (FIG. 10) Intranasal delivery was performed as previously described (Hanson and Frey, 2007). Mice at 2-3 months of age were hand-restrained, positioned in a supine position, and administered two 12 μl drops of cotinine solution (10 mg/ml in PBS), or PBS alone, into both nares. […] Mice were individually placed in an uncovered square arena (40 cm×40 cm×35 cm), allowed to freely explore for 30 minutes (min) while monitored with a video tracking software (ANY-Maze®, Stoelting Co., Illinois, USA) under moderate lighting. Several parameters including total distance traveled, speed, and time spent in the center and peripheral zones (20 cm×20 cm) were measured to assess locomotor activity.

[2] = test system: GFAP; test: GFAP immunofluorescence, morphometric analysis and cell counting in the dentate gyrus (Example 3); assay type: in vivo, C57BL/6J mice; conditions: restrained mice, oral co-treatment; vs vehicle-treated restrained mice
Experimental: Mice after acclimatization and one week of handling were randomly divided into five groups (n=8/condition) and orally treated as follow: 1) control non-restrained mice treated with vehicle (PBS, pH 7.4); 2) restrained mice treated with vehicle; 3), restrained mice treated with a cotinine solution (5 mg/kg in PBS, pH 7.4) via gavage; 4) restrained mice treated with KO (143 mg/kg); 5) restrained mice treated with cotinine plus KO solution. Mice were started with treatments, the first day of restraint and continuously until euthanasia. Treatments were administered at the same time of the day, 30 min before restraint.
For the immunohistochemistry (IHC) and fluorescent IHC (F-IHC) analysis the right hemisphere of each mouse brain was placed in 4% paraformaldehyde in PBS pH 7.4 at 4° C. for 24 h. The tissues were embedded in 2% agarose molds for vibratome sectioning.
For the F-IHC, samples were washes 3 times for 7 min with Tris-buffered saline (TBS), pH 7.8. The primary antibody anti-GFAP (1:50, BioSB) was diluted in diluent buffer, containing TBS supplemented with 1% bovine serum albumin (BSA) and 0.2% Triton X-100, and incubated with the tissue sections overnight (ON) at 4° C. […] The samples were counterstained with Hoechst (1:1000) and mounted with fluorescence mounting medium (Prolong, Invitrogen). […]
In each image, a region of interest (ROI) that represented the dentate gyrus was determined using free-hand drawing. For each ROI, the mean gray values (MGV), representing the area fraction with immunoreactivity for GFAP, were measured. To measure the fluorescence intensity of GFAP immunostaining in the dentate gyrus, maximum intensity projections of confocal z-stacks acquired from sagittal brain sections were converted into 8-bit greyscale images with 256 scales (pixel intensity 0 corresponding to no signal and 255 to maximal signal) by ImageJ software. […] For the GFAP+ cell counting, cell to be counted must had at least half of the cell nucleus visible on the edge of the ROI and cells were not included in the analysis if they were adherent to blood vessel walls.

[3] = test system: mice subjected to restraint stress; test: Light-dark box after restraint stress (Example 1, Experiment 1); assay type: in vivo, C57BL/6 mice; conditions: RS mice treated with cotinine; p=0.035
Experimental: Mice were treated immediately after the 21 days of immobilization stress (6 h/day) until euthanasia. Mice (n=5-8/condition) received daily treatments with 1. PBS (phosphate buffer saline, pH 7.4) via intranasal (2×12 μl/nostril), 2. PBS via gavage (50 μl); 3. Cotinine dissolved in PBS via oral (gavage, (0.5 mg/kg; Cot 0.5); 4. Cotinine dissolved in PBS via intranasal (Cot IN, 10 mg/ml, 2×12 μl/nostril).
To induce chronic stress, the restraint stress paradigm was used as previously described. Mice are immobilized in 50 ml falcon plastic tubes that were attached to mouse cages. The immobilization proceeded during 6 h from 9:00 AM to 3:00 PM in absence of treatments. Tubes have holes in the opposite side of the tube to allow the animal breathing and urination. Mice were almost completely immobilized for 6 h/day for 21 days after which they were permitted freely to move, eat and drink.
Behavioral analysis was performed using the Any-maze® software (Stoelting CO, USA) to track the activity of animals. Mice were tested for depressive behavior, anxiety, locomotor activity and working memory using the Porsolt's test; Light-dark box (LDB) and the elevated plus Maze (EPM), open field (OF), and Novel object recognition (NOR), respectively.

In the case of `CN1C(=O)CC[C@H]1c1cccnc1` [Cotinine, (5S)-1-methyl-5-(3-pyridyl) pyrrolidin-2-one], the “distance traveled in the OF test” value [1] is reported as 49±13 m, the “mean gray value (GFAP IR intensity) in the dentate gyrus” value [2] is reported as “significant increase of the IR intensity” and the “number of GFAP+ cells (cell density) in the dentate gyrus” value [2] is reported as “significant increase of cell density”. The “percent area fraction occupied by GFAP+ cells in the dentate gyrus” value [2] was “significant increase in the GFAP+ fraction area” and the “number of entries to the light zone (light-dark box)” value [3] was “almost completely restored the number of entries to the light zone”.
